Consider twelve compounds from article PMC8217266 (Clinical Pharmacology and Therapeutics, 2021).

SMILES strings stand for the structures. Bounds are passed on as bounds.

In data set [1] the target is T1, human OAT3 (Homo sapiens, UniProt Q8TCC7).
T1 sequence (Q8TCC7 1-542): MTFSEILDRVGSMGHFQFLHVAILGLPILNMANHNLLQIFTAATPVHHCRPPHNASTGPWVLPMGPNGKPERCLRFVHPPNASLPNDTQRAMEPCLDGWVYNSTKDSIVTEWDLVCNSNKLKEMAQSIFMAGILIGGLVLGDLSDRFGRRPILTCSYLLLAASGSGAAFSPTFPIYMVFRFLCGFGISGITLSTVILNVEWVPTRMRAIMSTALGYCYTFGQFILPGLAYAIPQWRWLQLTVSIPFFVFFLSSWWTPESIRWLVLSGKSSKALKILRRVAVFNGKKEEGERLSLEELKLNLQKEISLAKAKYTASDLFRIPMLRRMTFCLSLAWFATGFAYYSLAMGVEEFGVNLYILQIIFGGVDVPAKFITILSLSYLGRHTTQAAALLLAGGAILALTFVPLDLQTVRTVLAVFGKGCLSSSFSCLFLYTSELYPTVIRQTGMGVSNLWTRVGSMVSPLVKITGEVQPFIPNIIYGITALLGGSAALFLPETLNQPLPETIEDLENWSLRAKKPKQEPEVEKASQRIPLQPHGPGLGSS
Nature of the data set: cell-based.

For data set [2], the target named is human MATE2 (Homo sapiens, UniProt Q86VL8). Nature of the data set: cell-based.
The target of data set [3] is T2, human OAT1 (Homo sapiens, UniProt Q4U2R8).
T2 sequence (Q4U2R8 1-563): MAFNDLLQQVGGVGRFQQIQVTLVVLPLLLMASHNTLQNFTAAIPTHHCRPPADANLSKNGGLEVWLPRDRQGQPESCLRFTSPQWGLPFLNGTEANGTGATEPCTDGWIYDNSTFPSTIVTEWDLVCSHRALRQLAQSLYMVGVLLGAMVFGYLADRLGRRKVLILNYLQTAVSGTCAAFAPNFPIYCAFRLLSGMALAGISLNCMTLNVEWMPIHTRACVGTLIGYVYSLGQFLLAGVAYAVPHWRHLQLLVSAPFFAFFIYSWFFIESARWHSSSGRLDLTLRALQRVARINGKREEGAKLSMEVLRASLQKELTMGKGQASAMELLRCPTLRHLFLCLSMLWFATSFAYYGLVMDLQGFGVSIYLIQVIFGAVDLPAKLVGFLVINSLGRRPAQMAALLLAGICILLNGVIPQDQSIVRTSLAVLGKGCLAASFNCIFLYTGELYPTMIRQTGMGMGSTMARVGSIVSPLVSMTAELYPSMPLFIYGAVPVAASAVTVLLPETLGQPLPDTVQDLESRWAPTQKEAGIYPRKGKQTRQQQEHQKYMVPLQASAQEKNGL
Nature of the data set: cell-based.

Data set [4] deals with T3, BCRP (Homo sapiens, UniProt Q9UNQ0).
T3 sequence (Q9UNQ0 1-655): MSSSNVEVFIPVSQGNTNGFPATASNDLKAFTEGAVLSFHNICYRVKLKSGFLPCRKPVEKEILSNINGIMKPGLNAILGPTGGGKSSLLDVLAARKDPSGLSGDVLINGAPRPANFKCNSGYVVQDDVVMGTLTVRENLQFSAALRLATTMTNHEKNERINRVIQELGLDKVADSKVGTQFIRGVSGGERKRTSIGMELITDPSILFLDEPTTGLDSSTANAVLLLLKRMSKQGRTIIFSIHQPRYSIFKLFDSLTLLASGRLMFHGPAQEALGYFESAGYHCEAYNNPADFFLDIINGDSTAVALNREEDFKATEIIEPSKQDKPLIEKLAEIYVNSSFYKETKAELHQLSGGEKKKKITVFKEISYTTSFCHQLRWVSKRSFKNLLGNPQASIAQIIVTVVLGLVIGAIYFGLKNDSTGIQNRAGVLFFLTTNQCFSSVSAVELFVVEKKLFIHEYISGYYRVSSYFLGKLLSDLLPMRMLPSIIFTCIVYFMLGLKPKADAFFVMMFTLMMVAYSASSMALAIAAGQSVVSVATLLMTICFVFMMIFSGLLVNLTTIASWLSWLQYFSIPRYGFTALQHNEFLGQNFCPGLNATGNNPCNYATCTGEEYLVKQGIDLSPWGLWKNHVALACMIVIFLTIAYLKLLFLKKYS
Nature of the data set: biochemical.

Data set [5] deals with T4, human MATE1 (Homo sapiens, UniProt Q96FL8).
T4 sequence (Q96FL8 1-570): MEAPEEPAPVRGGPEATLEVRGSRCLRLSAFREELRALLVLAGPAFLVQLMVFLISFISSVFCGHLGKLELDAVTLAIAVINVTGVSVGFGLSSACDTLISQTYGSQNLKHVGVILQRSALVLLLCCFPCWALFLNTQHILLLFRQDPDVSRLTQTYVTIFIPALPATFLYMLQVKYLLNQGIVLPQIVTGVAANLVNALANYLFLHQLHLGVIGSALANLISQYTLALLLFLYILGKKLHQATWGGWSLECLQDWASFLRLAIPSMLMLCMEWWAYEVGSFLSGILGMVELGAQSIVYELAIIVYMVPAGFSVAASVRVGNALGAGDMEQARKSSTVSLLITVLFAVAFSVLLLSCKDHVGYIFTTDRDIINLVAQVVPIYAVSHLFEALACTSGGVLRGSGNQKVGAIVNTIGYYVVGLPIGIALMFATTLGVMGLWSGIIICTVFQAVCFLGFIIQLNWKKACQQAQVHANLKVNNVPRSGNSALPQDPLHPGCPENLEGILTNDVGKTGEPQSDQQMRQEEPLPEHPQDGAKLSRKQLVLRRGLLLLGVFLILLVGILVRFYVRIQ
Nature of the data set: cell-based.

In data set [6] the target is T5, human OCT1 (Homo sapiens, UniProt O15245).
T5 sequence (O15245 1-554): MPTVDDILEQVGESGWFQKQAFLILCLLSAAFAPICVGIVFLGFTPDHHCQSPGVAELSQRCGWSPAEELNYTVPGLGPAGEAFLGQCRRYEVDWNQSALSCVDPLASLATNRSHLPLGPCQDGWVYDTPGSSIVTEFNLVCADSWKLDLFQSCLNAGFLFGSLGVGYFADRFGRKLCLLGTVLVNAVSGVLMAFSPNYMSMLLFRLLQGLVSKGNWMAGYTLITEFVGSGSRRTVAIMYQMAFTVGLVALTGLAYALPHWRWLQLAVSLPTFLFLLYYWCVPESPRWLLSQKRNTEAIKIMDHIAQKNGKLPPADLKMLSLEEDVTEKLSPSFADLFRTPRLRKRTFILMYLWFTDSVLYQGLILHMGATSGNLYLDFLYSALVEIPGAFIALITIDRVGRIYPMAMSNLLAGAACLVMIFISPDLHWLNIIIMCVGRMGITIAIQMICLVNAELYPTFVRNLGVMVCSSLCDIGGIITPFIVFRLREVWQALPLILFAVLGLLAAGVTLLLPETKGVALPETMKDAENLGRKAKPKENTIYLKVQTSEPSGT
Nature of the data set: cell-based.

The target of data set [7] is P-gp (Homo sapiens, UniProt P08183). Nature of the data set: biochemical.
Data set [8] has as its system transporters at major organ sites. Description: Prediction of transporter-mediated inhibition / DDI potential. On the set-up: species or system human. Particulars: of 11 transporters; FDA criteria.
For data set [9], the system named is triglycerides, LDL cholesterol, and total cholesterol, biomarkers of OCT1 activity. Description: UCSF EHR analysis: lipid levels in patients with HIV, on vs off drug. The data set is classed as in vivo, human.

Chain of human MATE2 (Q86VL8 1-566 isoform Q86VL8-3): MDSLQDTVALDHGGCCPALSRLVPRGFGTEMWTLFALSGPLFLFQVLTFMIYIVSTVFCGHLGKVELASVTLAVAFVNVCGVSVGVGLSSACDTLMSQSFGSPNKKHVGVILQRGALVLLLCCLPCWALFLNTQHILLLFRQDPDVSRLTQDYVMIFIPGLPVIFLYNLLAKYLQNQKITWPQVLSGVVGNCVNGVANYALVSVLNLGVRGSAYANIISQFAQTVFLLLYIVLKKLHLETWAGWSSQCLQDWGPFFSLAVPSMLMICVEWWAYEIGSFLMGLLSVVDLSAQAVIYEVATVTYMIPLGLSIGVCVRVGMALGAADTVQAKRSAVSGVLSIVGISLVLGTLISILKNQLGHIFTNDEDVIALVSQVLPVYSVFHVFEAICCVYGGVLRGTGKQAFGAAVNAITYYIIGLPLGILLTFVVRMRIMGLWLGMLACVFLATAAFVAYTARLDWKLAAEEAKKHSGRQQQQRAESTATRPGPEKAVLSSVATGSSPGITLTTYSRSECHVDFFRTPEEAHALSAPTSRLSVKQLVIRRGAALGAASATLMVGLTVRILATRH
Chain of P-gp (P08183 whole entry): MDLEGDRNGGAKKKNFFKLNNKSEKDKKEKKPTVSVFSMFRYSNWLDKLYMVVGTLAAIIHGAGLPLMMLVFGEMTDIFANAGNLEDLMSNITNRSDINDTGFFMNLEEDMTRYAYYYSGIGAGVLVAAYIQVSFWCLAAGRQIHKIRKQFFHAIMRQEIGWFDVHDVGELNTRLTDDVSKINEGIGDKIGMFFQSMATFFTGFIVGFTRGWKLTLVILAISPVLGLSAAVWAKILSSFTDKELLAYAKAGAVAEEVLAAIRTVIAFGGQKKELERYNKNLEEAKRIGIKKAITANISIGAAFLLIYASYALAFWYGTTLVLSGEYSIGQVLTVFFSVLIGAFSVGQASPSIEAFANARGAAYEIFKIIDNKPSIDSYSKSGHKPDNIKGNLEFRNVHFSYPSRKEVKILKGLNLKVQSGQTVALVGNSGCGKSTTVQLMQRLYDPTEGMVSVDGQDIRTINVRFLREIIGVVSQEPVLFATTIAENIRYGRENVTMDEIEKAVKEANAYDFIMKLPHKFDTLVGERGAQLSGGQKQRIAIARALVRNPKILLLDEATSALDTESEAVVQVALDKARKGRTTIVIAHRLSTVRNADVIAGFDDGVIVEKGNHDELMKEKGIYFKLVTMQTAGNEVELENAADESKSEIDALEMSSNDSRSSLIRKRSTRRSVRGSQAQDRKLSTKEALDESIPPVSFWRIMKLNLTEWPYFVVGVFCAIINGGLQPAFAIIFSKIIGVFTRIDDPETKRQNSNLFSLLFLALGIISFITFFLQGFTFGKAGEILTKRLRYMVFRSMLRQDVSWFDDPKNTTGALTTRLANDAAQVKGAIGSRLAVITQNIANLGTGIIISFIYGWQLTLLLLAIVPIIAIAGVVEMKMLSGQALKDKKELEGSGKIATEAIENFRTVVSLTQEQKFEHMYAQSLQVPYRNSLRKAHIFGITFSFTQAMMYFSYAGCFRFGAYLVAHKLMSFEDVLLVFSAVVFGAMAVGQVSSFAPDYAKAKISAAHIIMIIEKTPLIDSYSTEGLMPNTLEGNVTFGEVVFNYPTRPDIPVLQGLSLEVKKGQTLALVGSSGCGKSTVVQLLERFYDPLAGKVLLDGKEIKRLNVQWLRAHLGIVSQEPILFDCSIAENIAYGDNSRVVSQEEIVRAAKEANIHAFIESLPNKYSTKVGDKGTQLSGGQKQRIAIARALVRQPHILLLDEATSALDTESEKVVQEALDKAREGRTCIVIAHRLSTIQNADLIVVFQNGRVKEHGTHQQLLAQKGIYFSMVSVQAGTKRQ

As to `CCS(=O)(=O)N1CC(CC#N)(n2cc(-c3ncnc4[nH]ccc34)cn2)C1` [Baricitinib], the IC50 in data set [1] was 12.7 ± 5 µM; in data set [2], 6.7 ± 5.6 µM; in [3], > 50 µM; in data set [4] it was > 50 µM; in data set [5] it was 36 ± 24 µM; in data set [6], 22.9 ± 18 µM. Moreover, the half-inhibitory concentration (IC50) in data set [7] was > 50 µM.
As for `CN(C)C(=O)COC(=O)Cc1ccc(OC(=O)c2ccc(NC(=N)N)cc2)cc1` [Camostat], the IC50 in data set [1] was > 100 µM; in data set [2], 2 ± 1.3 µM; in [3], > 100 µM; in [4], > 100 µM; in data set [6], 20.3 ± 21.3 µM; in data set [7] it was 35 µM. Moreover, in [8], the “No. of transporters at major organ sites inhibited at clinical concentrations” value is 1.
As to `CCN(CC)CCCC(C)Nc1ccnc2cc(Cl)ccc12` (stereo not drawn) [Chloroquine], the IC50 in data set [1] is > 100 µM; in data set [2], 0.7 ± 0.2 µM; in data set [3], > 100 µM; in [5] it was 0.8 ± 0.8 µM; in data set [6] it was 10.7 ± 10.4 µM. In addition, the “No. of transporters at major organ sites inhibited at clinical concentrations” value in data set [8] was 4.
Consider `COc1cc2c(c(OC)c1OC)-c1ccc(OC)c(=O)cc1[C@@H](NC(C)=O)CC2` [Colchicine], for which the IC50 is > 100 µM in data set [1]; > 100 µM in data set [2]; > 100 µM in data set [4]; > 100 µM in [5]; 42 µM in [7].
For the compound `CCCCCCCCc1ccc(CCC(N)(CO)CO)cc1` [Fingolimod], the half-inhibitory concentration (IC50) in data set [1] is > 100 µM; in data set [2] it was > 100 µM; in data set [3], 64 µM; in data set [4], > 100 µM; in [5] it was > 100 µM; in data set [6] it was > 100 µM. Further, the IC50 in data set [7] stood at 89 µM. The “No. of transporters at major organ sites inhibited at clinical concentrations” value in data set [8] is 0.
With `CCN(CCO)CCCC(C)Nc1ccnc2cc(Cl)ccc12` (stereo not drawn) [Hydroxychloroquine], the IC50 in [1] is > 100 µM; in [2], 0.8 ± 0.1 µM; in data set [3], > 100 µM; in [4], > 100 µM; in [5], 1.9 ± 0.3 µM; in [6], 20 ± 15.9 µM. In addition, the 50% inhibitory concentration (IC50) in [7] is 51.8 ± 20.6 µM. The “No. of transporters at major organ sites inhibited at clinical concentrations” value in data set [8] was 4.
Take `Cc1cccc(C)c1OCC(=O)N[C@@H](Cc1ccccc1)[C@@H](O)C[C@H](Cc1ccccc1)NC(=O)[C@H](C(C)C)N1CCCNC1=O` [Lopinavir]: the IC50 was > 100 µM in [1]; 25.1 ± 9.6 µM in data set [2]; > 100 µM in data set [3]; 22.5 ± 4 µM in [5]; > 100 µM in data set [6]. For the same compound, the “No. of transporters at major organ sites inhibited at clinical concentrations” value in data set [8] is on record as 5.
As for `CCOC(=O)C1=C[C@@H](OC(CC)CC)[C@H](NC(C)=O)[C@@H](N)C1` [Oseltamivir], the IC50 in data set [1] was > 100 µM; in data set [2] it was > 100 µM; in data set [3], 90 µM; in data set [4], > 100 µM; in [5], > 100 µM; in [6], > 100 µM. For the same compound, it took 44 µM to reach half-maximal inhibition in data set [7] (IC50). Also, the “No. of transporters at major organ sites inhibited at clinical concentrations” value in data set [8] is given as 1.
As to `COc1cc2nc(N3CCN(C(=O)c4ccco4)CC3)nc(N)c2cc1OC` [Prazosin], the 50% inhibitory concentration (IC50) in [2] is 2.4 ± 0.9 µM; in data set [3] it was > 100 µM; in data set [4], > 100 µM; in [6], 1.8 ± 2 µM.
On to `NC(=O)c1ncn([C@@H]2O[C@H](CO)[C@@H](O)[C@H]2O)n1` [Ribavirin], for which the half-maximal inhibitory concentration (IC50) was > 100 µM in data set [1]; > 100 µM in data set [2]; 99 µM in data set [3]; > 100 µM in data set [4]; > 100 µM in [5]; > 100 µM in data set [6]. In [7], this compound showed a half-inhibitory concentration (IC50) of 47 µM. In data set [8], the “No. of transporters at major organ sites inhibited at clinical concentrations” value is listed as 2.
For the compound `CC(C)c1nc(CN(C)C(=O)N[C@H](C(=O)N[C@@H](Cc2ccccc2)C[C@H](O)[C@H](Cc2ccccc2)NC(=O)OCc2cncs2)C(C)C)cs1` [Ritonavir], in data set [9] (matched 1:1, n=719 each, off drug 99.5, P 0.0033), the “LDL cholesterol, Average On drug” value is given as 106/99.5 mg/dL. The “Triglyceride, Average On drug” value in data set [9] (matched 1:1, n=782 each, off drug 162, P 7.8E-12) was 252/162 mg/dL. Further, the “Total cholesterol, Average On drug” value in data set [9] (matched 1:1, n=803 each, off drug 168, P 3.1E-13) is given as 190/168 mg/dL. Besides, the “LDL cholesterol, Median On drug” value in data set [9] (matched 1:1, off drug 96) is reported as 101/96 mg/dL. Further, the “Triglyceride, Median On drug” value in data set [9] (matched 1:1, off drug 124) is listed as 156/124 mg/dL. In addition, the “Total cholesterol, Median On drug” value in data set [9] (matched 1:1, off drug 165) is listed as 182/165 mg/dL.
For the compound `C[C@@H]1CCN(C(=O)CC#N)C[C@@H]1N(C)c1ncnc2[nH]ccc12` [Tofacitinib], the IC50 is 51.6 ± 7 µM in [1]; 68.5 ± 6.2 µM in data set [2]; 89 µM in data set [3]; > 100 µM in data set [4]; 1 ± 0.5 µM in data set [5]; 41.4 ± 13 µM in [6]. Moreover, the IC50 in data set [7] was > 100 µM. Further, the “No. of transporters at major organ sites inhibited at clinical concentrations” value in [8] is 1.
